Results from BindingDB's records for doi:10.1016/j.ab.2006.10.017 (Pfizer, 2007).

target: T1, Renin (Homo sapiens, UniProt P00797); experiment: In Vitro Renin IC50 Determinations (Tandem GFP FRET Assay); conditions: pH 7.4; 22 °C
T1 sequence (P00797 whole entry): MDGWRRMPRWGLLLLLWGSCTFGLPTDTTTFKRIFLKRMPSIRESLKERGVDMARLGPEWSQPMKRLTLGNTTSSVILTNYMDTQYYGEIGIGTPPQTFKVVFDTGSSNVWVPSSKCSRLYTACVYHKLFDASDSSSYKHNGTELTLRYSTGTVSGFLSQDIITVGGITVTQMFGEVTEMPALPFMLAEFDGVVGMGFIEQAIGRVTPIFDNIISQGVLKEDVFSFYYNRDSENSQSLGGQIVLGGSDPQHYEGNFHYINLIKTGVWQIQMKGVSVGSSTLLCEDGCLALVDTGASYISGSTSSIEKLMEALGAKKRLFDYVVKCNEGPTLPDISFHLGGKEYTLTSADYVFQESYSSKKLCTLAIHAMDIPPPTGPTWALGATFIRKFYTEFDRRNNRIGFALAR
Excerpt: The renin assay utilized a tandem Green Flourescent Protein (tGFP) substrate that was hydrolyzed by human rennin.

SMILES | IC50 [nM]
CCc1nc(N)nc(NCCc2ccccc2NC(=O)c2ccc(N)c(OC)c2)c1-c1ccc2c(c1)N(CCCOC)C(=O)C(C)(C)O2 [4-amino-N-{2-[2-({2-amino-6-ethyl-5-[4-(3-methoxypropyl)-2,2-dimethyl-3-oxo-3,4-dihydro-2H-1,4-benzoxazin-6-yl]pyrimidin-4-yl}amino)ethyl]phenyl}-3-methoxybenzamide] | 336
CCc1nc(N)nc(N)c1-c1ccc(NCc2cc(F)cc(F)c2)cc1 [5-(4-{[(3,5-difluorophenyl)methyl]amino}phenyl)-6-ethylpyrimidine-2,4-diamine] | 6560
CCc1nc(N)nc(NCCNS(=O)(=O)c2ccc3ccccc3c2)c1-c1ccc2c(c1)N(CCCOC)C(=O)C(C)(C)O2 [N-[2-({2-amino-6-ethyl-5-[4-(3-methoxypropyl)-2,2-dimethyl-3-oxo-3,4-dihydro-2H-1,4-benzoxazin-6-yl]pyrimidin-4-yl}amino)ethyl]naphthalene-2-sulfonamide] | 27

More lines, now with the values ahead:

IC50 [nM] | SMILES
691 | CCc1nc(N)nc(N)c1-c1ccc2c(c1)N(CCCOC)CCC2 [6-ethyl-5-[1-(3-methoxypropyl)-1,2,3,4-tetrahydroquinolin-7-yl]pyrimidine-2,4-diamine]
58 | CCc1nc(N)nc(N)c1-c1ccc2c(c1)N(CCCOC)C(c1ccccc1)CC2 (stereo unspecified) [6-ethyl-5-[1-(3-methoxypropyl)-2-phenyl-1,2,3,4-tetrahydroquinolin-7-yl]pyrimidine-2,4-diamine]
173 | CCc1nc(N)nc(N)c1-c1ccc2c3ccccc3n(CCCOC)c2c1 [6-ethyl-5-[9-(3-methoxypropyl)-9H-carbazol-2-yl]pyrimidine-2,4-diamine]
